Test results as given in patent US8338414B2, “Immunosuppressive agent and anti-tumor agent comprising heterocyclic compound as active ingredient” (Zenyaku Kogyo KabushikiKaisha, priority 2005, dated 2012).
Where two headings read alike, the source gives them in different places.

Columns and labels:
mouse spleen cells = test: Proliferation inhibition assay for mouse spleen cells; assay type: cell-based; conditions: 3 days, Alamar Blue
Protocol: Spleen cells (2×10^6 cells/mL) prepared from C57BL/6N female mice (8 weeks old, purchased from Charles River Laboratories Japan Inc.) were suspended in RPMI 1640 medium (containing 10% fetal bovine serum, 10 mM HEPES, 1 mM pyruvic acid, 4.5 g/L glucose, 100 units/mL penicillin, and 0.1 mg/mL streptomycin), and seeded in wells of a 96 well plate at 0.225 mL per well. Serial dilutions of test substances were added to respective wells, and then concanavalin A (Con A, 3 μg/mL), lipopolysaccharide (LPS, 100 μg/mL), or an anti-mouse IgM antibody (100 μg/mL) were added. Thereafter, they were incubated under conditions of carbon dioxide 5% at a temperature 37° C. for 3 days. Next, Alamar Blue solution was added at 50 μL per 150 μL, and after having cultured for one day, the fluorescence intensity at 590 nm using an excitation wavelength of 530 nm was determined by Cytoflour 4000 (Applied Biosystems).

[1] = tested on: Rabbit synoviocytes HIG-82; test: Inhibition assay for proliferation of rabbit synoviocyte; assay type: cell-based; conditions: HIG-82, 3 days, Alamar Blue
Protocol: Rabbit synoviocytes HIG-82 suspended in HAM medium (containing 10% fetal bovine serum, 25 mM HEPES, and 0.1 mg/mL kanamycin) (with 4×10^4 cells/mL) were seeded in wells of a 96 well plate at 0.135 mL per well. Then, 15 μL of each of serial dilutions of test substances was added to a respective well, and incubated under conditions of carbon dioxide 5% at a temperature 37° C. Alamar Blue solution was added at 50 μL per well on day 0 and day 3, and incubated for one day, and thereafter fluorescence intensity at 590 nm using an excitation wavelength of 530 nm was determined by Cytoflour 4000 (Applied Biosystems).

Daudi cells = test: Proliferation inhibitory activity on hematologic neoplasm cells, Daudi; assay type: cell-based; conditions: 3 days, Alamar Blue
Protocol: (§1) Daudi cells (5×10^5 cells/mL), Jurkat cells (5×10^5 cells/mL), THP-1 cells (5×10^5 cells/mL), U 937 cells (5×10^5 cells/mL), and HL 60 cells (5×10^5 cells/mL) suspended in RPMI 1640 medium (containing 10% fetal bovine serum, 10 mM HEPES, 1 mM pyruvic acid, 4.5 g/L glucose, 100 units/mL penicillin, and 0.1 mg/mL streptomycin) were seeded in 96 well plates at a capacity of 0.135 mL per well. Serial dilutions of test substances were added to respective wells at 15 μL/well, and incubated under conditions of carbon dioxide 5% at 37° C. for 3 days. Thereafter, Alamar Blue solution was added at 50 μL, and after incubation for one day, the fluorescence intensity at 590 nm using an excitation wavelength of 530 nm was determined by Cytoflour 4000 (Applied Biosystems).

Jurkat cells = test: Proliferation inhibitory activity on hematologic neoplasm cells, Jurkat; assay type: cell-based; conditions: 3 days, Alamar Blue
Protocol: as §1

THP-1 cells = test: Proliferation inhibitory activity on hematologic neoplasm cells, THP-1; assay type: cell-based; conditions: 3 days, Alamar Blue
Protocol: as §1

[2] = tested on: human peripheral blood mononuclear cells; test: Proliferation inhibition assay for human peripheral blood mononuclear cells; assay type: cell-based; conditions: Homo sapiens, 72 h; PBMC, anti-CD3 and anti-CD28 antibody, 3 days, Alamar Blue
Protocol: 4 mL of blood collected from healthy subjects was placed on 3 mL of MonoPoly Resolving Medium, and after centrifugation, the mononuclear cell (PBMC) fraction was collected. After washing with saline, PBMC (1×10^5 cells/mL) was suspended in RPMI 1640 medium (containing 10% fetal bovine serum, 10 mM HEPES, 1 mM pyruvic acid, and 4.5 g/L glucose). Next, after having added an anti-CD28 antibody (1 μg/mL) to the suspension, they were seeded on an anti-human CD3 T cell activation plate (BD Bioscience) at a capacity of 0.135 mL per well. Then, serial dilutions of test substances were added to respective wells, and incubated under conditions of carbon dioxide 5% at a temperature 37° C. After 3 days, Alamar Blue solution was added at 50 μL per well, and after incubation for one day, a fluorescence intensity at 590 nm using an excitation wavelength of 530 nm was determined by Cytoflour 4000 (Applied Biosystems).

[3] = tested on: allogeneic mixed lymphocyte reaction; test: Allogeneic mixed lymphocyte reaction; assay type: cell-based, mouse; conditions: Mus musculus, Lymphocyte; C57BL/6N spleen stimulator cells, BALB/c lymph node responder cells, 86 hours, BrdU
Protocol: Spleen cells prepared from C57BL/6N female mice (8-10 weeks old, purchased from Charles River Laboratories Japan Inc.) and peripheral lymph node mononuclear cells prepared from BALB/c female mice (8-10 weeks old, purchased from Charles River Laboratories Japan Inc.) were used as stimulator cells and responder cells, respectively. The respective cells were suspended in RPMI 1640 medium (containing 10% fetal bovine serum, 100 units/mL penicillin, and 0.1 mg/mL streptomycin) (with 2×10^6 cells/mL).

HL 60 cells = test: Proliferation inhibitory activity on hematologic neoplasm cells, HL60; assay type: cell-based; conditions: Homo sapiens, HL-60, 72 h; 3 days, Alamar Blue
Protocol: as §1

U 937 cells = test: Proliferation inhibitory activity on hematologic neoplasm cells, U937; assay type: cell-based; conditions: Homo sapiens, U-937, 72 h; 3 days, Alamar Blue
Protocol: as §1

[4] = 72 h, LPS 100 μg/mL, read-out: Inhibition of LPS response
[5] = 72 h, anti-mouse IgM antibody 100 μg/mL, read-out: Inhibition of Anti-IgM antibody response
[6] = 72 h, concanavalin A 3 μg/mL, read-out: Inhibition of Con A response

melting point | Structure (SMILES) | IC50 (mouse spleen cells; [4]) [nM] | IC50 (mouse spleen cells; [5]) [nM] | IC50 (mouse spleen cells; [6]) [nM] | other results
255 to 260 °C | COC(=O)N1CCN(c2nc(N3CCOCC3)nc(-n3c(C(F)F)nc4ccccc43)n2)CC1 [Production Example 43, 2-(2-Difluoromethylbenzimidazol-1-yl)-4-(4-methoxycarbonylpiperazin-1-yl)-6-morpholino-1,3,5-triazine] |  |  |  | 
190 to 192 °C | FC(F)c1nc2ccccc2n1-c1nc(N2CCCCC2)nc(N2CCOCC2)n1 [Compound 7, 2-(2-Difluoromethylbenzimidazol-1-yl)-4-piperidino-6-morpholino-1,3,5-triazine] | 100 to 10000 | 100 to 10000 | 100 to 10000 | 
> 250 °C | Oc1ccc2c(nc(C(F)F)n2-c2nc(N3CCOCC3)nc(N3CCOCC3)n2)c1Cl [Production Example 31, 2-(4-Chloro-2-difluoromethyl-5-hydroxybenzimidazol-1-yl)-4,6-dimorpholino-1,3,5-triazine] |  |  |  | 
217 to 220 °C | Cc1cc2nc(C(F)F)n(-c3nc(N4CCOCC4)nc(N4CCOCC4)n3)c2cc1C [Production Example 29, 2-(5,6-Dimethyl-2-difluoromethylbenzimidazol-1-yl)-4,6-dimorpholino-1,3,5-triazine] |  |  |  | 
272 to 274 °C | Oc1ccc2c(c1)nc(C(F)F)n2-c1nc(N2CCOCC2)nc(N2CCOCC2)n1 [Compound 12, 2-(2-Difluoromethyl-5-hydroxybenzimidazol-1-yl)-4,6-dimorpholino-1,3,5-triazine] | 1 to 100 | 1 to 100 | 1 to 100 | 
256 °C (dec.) | Nc1cc(Cl)c2nc(C(F)F)n(-c3nc(N4CCOCC4)nc(N4CCCC4CO)n3)c2c1 (stereo not drawn) [Production Example 30, 2-(6-Amino-4-chloro-2-difluoromethylbenzimidazol-1-yl)-4-(2-hydroxymethylpyrrolidin-1-yl)-6-morpholino-1,3,5-triazine] |  |  |  | 
226 to 227 °C (dec.) | CC1(C)CN(c2nc(N3CCOCC3)nc(-n3c(C(F)F)nc4ccc(N)cc43)n2)CCO1 [Compound 13, 2-(6-Amino-2-difluoromethylbenzimidazol-1-yl)-4-(2,2-dimethylmorpholino)-6-morpholino-1,3,5-triazine] | 1 to 100 | 1 to 100 | 1 to 100 | 
228 to 230 °C | O=CN1CCN(c2nc(N3CCOCC3)nc(-n3c(C(F)F)nc4ccccc43)n2)CC1 [Production Example 33, 2-(2-Difluoromethylbenzimidazol-1-yl)-6-(4-formylpiperazin-1-yl)-4-morpholino-1,3,5-triazine] |  |  |  | 
222 to 224 °C | CCOc1ccc2nc(C(F)F)n(-c3nc(N4CCOCC4)nc(N4CCOCC4)n3)c2c1 [Compound 9, 2-(2-Difluoromethyl-6-ethoxybenzimidazol-1-yl)-4,6-dimorpholino-1,3,5-triazine] | 1 to 100 | 1 to 100 | 1 to 100 | 

Further lines, the compound ahead of its results:

Structure (SMILES) | melting point | IC50 (mouse spleen cells; [4]) [nM] | IC50 (mouse spleen cells; [5]) [nM] | IC50 (mouse spleen cells; [6]) [nM] | other results
ON1CCN(c2nc(N3CCOCC3)nc(-n3c(C(F)F)nc4ccccc43)n2)CC1 [Compound 26, 2-(2-Difluoromethylbenzimidazol-1-yl)-4-(4-hydroxypiperizin-1-yl)-6-morpholino-1,3,5-triazine] |  |  |  |  | IC50 (mouse spleen cells; LPS 100 μg/mL, read-out: Inhibition of LPS response): 1 to 100 nM; IC50 (mouse spleen cells; concanavalin A 3 μg/mL, read-out: Inhibition of Con A response): ≤ 1 nM; IC50 [1]: 2380 nM; IC50 (Daudi cells): 426 nM; IC50 (Jurkat cells): 3120 nM; IC50 (THP-1 cells): 865 nM
O=C1CN(c2nc(N3CCOCC3)nc(-n3c(C(F)F)nc4ccccc43)n2)CCN1 [Production Example 34, 2-(2-Difluoromethylbenzimidazol-1-yl)-4-morpholino-6-(3-oxopiperazin-1-yl)-1,3,5-triazine] | 255 to 257 °C |  |  |  | 
CC1CN(c2cc(N3CC(C)OC(C)C3)nc(-n3c(C(F)F)nc4cc(N)ccc43)n2)CC(C)O1 (stereo not drawn) [Compound 17, 2-(5-Amino-2-difluoromethylbenzimidazol-1-yl)-4,6-di(2,6-dimethylmorpholino)pyrimidine] | 157 to 160 °C | 10000 to 100000 | 100 to 10000 | 100 to 10000 | 
O=C1CN(c2nc(N3CCOCC3)nc(-n3c(C(F)F)nc4ccccc43)n2)CC(=O)N1 [Production Example 35, 2-(2-Difluoromethylbenzimidazol-1-yl)-6-(3,5-dioxopiperazin-1-yl)-4-morpholino-1,3,5-triazine] | 230 to 232 °C |  |  |  | 
COc1ccc2c(c1)nc(C(F)F)n2-c1nc(N2CCOCC2)nc(N2CCOCC2)n1 [Compound 23, 2-(2-Difluoromethyl-5-methoxybenzimidazol-1-yl)-4,6-dimorpholino-1,3,5-triazine] |  |  |  |  | IC50 [2]: 19.2 nM; IC50 ([1]; Oryctolagus cuniculus, 72 h): 121 nM; IC50 [3]: 258 nM; IC50 (Daudi cells; Homo sapiens, Daudi, 72 h): 13.2 nM; IC50 (Jurkat cells; Homo sapiens, Jurkat, 72 h): 229 nM; IC50 (HL 60 cells): 139 nM; IC50 (THP-1 cells; Homo sapiens, THP-1, 72 h): 68.6 nM; IC50 (U 937 cells): 345 nM
CC1(C)CN(c2cc(N3CCOCC3)nc(-n3c(C(F)F)nc4c(O)cccc43)n2)CCO1 [Compound 21, 2-(2-Difluoromethyl-4-hydroxybenzimidazol-1-yl)-4-(2,2-dimethylmorpholino)-6-morpholinopyrimidine] | 185 to 187 °C | ≤ 1 | ≤ 1 | ≤ 1 | 
C[C@@H]1OCCN(c2nc(N3CCOCC3)nc(-n3cnc4ccccc43)n2)[C@H]1C (relative stereo) [Compound 2, 2-(Benzimidazol-1-yl)-4-(trans-2,3-dimethylmorpholino)-6-morpholino-1,3,5-triazine] | 147 to 150 °C | 100 to 10000 | 100 to 10000 | 100 to 10000 | 
Nc1nc2ccccc2n1-c1nc(N2CCOCC2)cc(N2CCOCC2)n1 [Compound 5, 2-(2-Aminobenzimidazol-1-yl)-4,6-dimorpholinopyrimidine] | 237 to 239 °C | 100 to 10000 | 100 to 10000 | 100 to 10000 | 
C[C@@H]1OCCN(c2nc(N3CCOCC3)nc(-n3c(C(F)F)nc4ccc(N)cc43)n2)[C@@H]1C (relative stereo) [Compound 8, 2-(6-Amino-2-difluoromethylbenzimidazol-1-yl)-4-(cis-2,3-dimethylmorpholino)-6-morpholino-1,3,5-triazine] | 220 to 222 °C (dec.) | 100 to 10000 | 1 to 100 | 1 to 100 | 
